How the values were obtained:
[1] = Half-life was determined; format: ADME; conditions: human
Cavia porcellus = organism: Cavia porcellus; test: In vitro inhibition of contractions in the electrically stimulated guinea pig ileum.; format: functional
Mus musculus [2] = test: In vivo analgesic activity in the mouse tail-flick assay following i.c.v. administration.; format: functional
Mus musculus [3] = test: In vivo analgesic activity in the mouse tail-flick assay following s.c. administration.; format: functional; conditions: sc
Mus musculus [4] = test: In vivo analgesic potency in mice compared to morphine after i.c.v. administration.; format: functional
[5] = Half-life of the compound; format: ADME
Mus musculus [6] = test: In vivo analgesic potency in mice compared to morphine after s.c. administration.; format: functional

Compound	half-life [1] [min]	IC50 (Cavia porcellus) [nM]	ED50 (Mus musculus [2]) [pmol/mouse]	ED50 (Mus musculus [3]) [µmol/kg]	Relative potency (Mus musculus [4])	half-life [5] [min]	Relative potency (Mus musculus [6])
C[C@@H](NC(=O)[C@@H](N)Cc1ccc(O)cc1)C(=O)N(C)[C@@H](Cc1ccccc1)NC(=O)CNC(=O)C12CC3CC(CC(C3)C1)C2	55	19.2	246				
C[C@@H](NC(=O)[C@@H](N)Cc1ccc(O)cc1)C(=O)N(C)[C@@H](Cc1ccccc1)NC(=O)CNC=O	35	380	642				
C[C@@H](NC(=O)[C@@H](N)Cc1ccc(O)cc1)C(=O)N[C@@H](Cc1ccccc1)NC(=O)CC(=O)NO	30	330	1600				
C[C@@H](NC(=O)[C@@H](N)Cc1ccc(O)cc1)C(=O)N[C@@H](Cc1ccccc1)C(=O)NCC(N)=O	30	45.2	68	68.1			
CCONC(=O)CNC(=O)[C@H](Cc1ccccc1)NC(=O)[C@@H](C)NC(=O)[C@@H](N)Cc1ccc(O)cc1	20	191	492				
C[C@@H](NC(=O)[C@@H](N)Cc1ccc(O)cc1)C(=O)N[C@@H](Cc1ccccc1)C(=O)NCNC=O	40	39.2	157				
C[C@@H](NC(=O)[C@@H](N)Cc1ccc(O)cc1)C(=O)N[C@@H](Cc1ccccc1)C(=O)NCC(=O)NO	25	108	140				
C[C@@H](NC(=O)[C@@H](N)Cc1ccc(O)cc1)C(=O)N[C@@H](Cc1ccccc1)NC(=O)CC(N)=O	35	242	974		3.11		
C[C@@H](NC(=O)[C@@H](N)Cc1ccc(O)cc1)C(=O)N[C@@H](Cc1ccccc1)C(=O)NCNC(=O)Cc1ccccc1	60	2.12	74.1	27.8		45	
CC(C(=O)NCC(=O)N[C@H](Cc1ccccc1)N(C)C(=O)[C@@H](C)NC(=O)[C@@H](N)Cc1ccc(O)cc1)c1ccccc1 (stereo partly specified)	60	31.2	269				
CN1CC[C@]23c4c5ccc(O)c4O[C@H]2[C@@H](O)C=C[C@H]3[C@H]1C5 [MORPHINE]			3030	10.9			
C[C@@H](NC(=O)[C@@H](N)Cc1ccc(O)cc1)C(=O)N(C)[C@@H](Cc1ccccc1)NC(=O)CNC(=O)Cc1ccccc1	45	25.2	292				
C[C@@H](NC(=O)[C@@H](N)Cc1ccc(O)cc1)C(=O)N[C@@H](Cc1ccccc1)C(=O)NCC(=O)N[C@@H](Cc1ccc(O)cc1)C(=O)N1CCC[C@H]1C(=O)N[C@@H](CO)C(N)=O [DERMORPHIN]	40		11.4	2.75		35	
C[C@@H](NC(=O)[C@@H](N)Cc1ccc(O)cc1)C(=O)N[C@@H](Cc1ccccc1)C(=O)NCC(=O)NC12CC3CC(CC(C3)C1)C2	35	2.05	5.12	18.8			
C[C@@H](NC(=O)[C@@H](N)Cc1ccc(O)cc1)C(=O)N[C@@H](Cc1ccccc1)C(=O)NCNC(=O)C12CC3CC(CC(C3)C1)C2	80	0.31	10.9	21.7		65	
CC(C(=O)NCNC(=O)[C@H](Cc1ccccc1)NC(=O)[C@@H](C)NC(=O)[C@@H](N)Cc1ccc(O)cc1)c1ccccc1 (stereo partly specified)	65	0.5	19.2	39.5		65	
CC(NC(=O)CNC(=O)[C@H](Cc1ccccc1)NC(=O)[C@@H](C)NC(=O)[C@@H](N)Cc1ccc(O)cc1)c1ccccc1 (stereo partly specified)	40	0.59	7.61	13.6			
C[C@@H](NC(=O)[C@@H](N)Cc1ccc(O)cc1)C(=O)N[C@@H](Cc1ccccc1)NC(=O)CC(=O)NCc1ccccc1	35	18.2	556				
CC(NC(=O)CC(=O)N[C@H](Cc1ccccc1)NC(=O)[C@@H](C)NC(=O)[C@@H](N)Cc1ccc(O)cc1)c1ccccc1 (stereo partly specified)	65	2.05	88.6	44.2		60	0.24
C[C@@H](NC(=O)[C@@H](N)Cc1ccc(O)cc1)C(=O)N[C@@H](Cc1ccccc1)C(=O)NCC(=O)NCc1ccccc1	30	2.97	33.1				
CCONC(=O)CC(=O)N[C@H](Cc1ccccc1)NC(=O)[C@@H](C)NC(=O)[C@@H](N)Cc1ccc(O)cc1	30	320	1630				
C[C@@H](NC(=O)[C@@H](N)Cc1ccc(O)cc1)C(=O)N[C@@H](Cc1ccccc1)NC(=O)CC(=O)NC12CC3CC(CC(C3)C1)C2	65	4.45	88.4	55.5		50	
